From the CheMixHub drug solubility set

Experiment: xn = mol fraction of the nth substance listed, in the solute-free solvent

NC(N)=C([N+](=O)[O-])[N+](=O)[O-] + CS(C)=O + CCC(C)=O
solubility (g/100 g solution)
Details | 293.15 K | 298.15 K | 303.15 K | 308.15 K | 313.15 K | 318.15 K | 323.15 K | 328.15 K | 333.15 K
x2 = 0.1228 | 2.96 | 3.02 | 3.23 | 3.43 | 3.66 | 3.88 | 4.15 | 4.41 | 4.69
x2 = 0.2395 | 6.6 | 7.02 | 7.36 | 7.71 | 8.11 | 8.5 | 8.9 | 9.32 | 9.81
x2 = 0.3506 | 10.8 | 11.4 | 11.7 | 12.2 | 12.7 | 13.1 | 13.6 | 14.2 | 14.8
x2 = 0.4565 | 14.7 | 15.3 | 15.7 | 16.2 | 16.7 | 17.2 | 17.8 | 18.4 | 19
x2 = 0.5575 | 18.4 | 19.1 | 19.6 | 20 | 20.6 | 21.1 | 21.7 | 22.4 | 23
x2 = 0.6539 | 21.6 | 22.1 | 22.7 | 23.2 | 23.8 | 24.4 | 25 | 25.6 | 26.4
x2 = 0.7462 | 24.1 | 24.8 | 25.3 | 25.7 | 26.3 | 26.9 | 27.5 | 28.1 | 28.8
x2 = 0.8344 | 26.2 | 26.7 | 27.2 | 27.7 | 28.2 | 28.8 | 29.4 | 30 | 30.7
x2 = 0.9189 | 27.9 | 28.7 | 29.2 | 29.6 | 30.1 | 30.6 | 31.2 | 31.9 | 32.5

c1ccc2c(c1)CCc1ccccc1N2 + CS(C)=O + O
solubility (g/100 g solution)
Details | x2 = 0.02506 | x2 = 0.0546 | x2 = 0.08995 | x2 = 0.1286 | x2 = 0.1882 | x2 = 0.2567 | x2 = 0.3485 | x2 = 0.4779 | x2 = 0.665
293.15 K | 0.237 | 2.56 | 6.27 | 6.04 | 5.43 | 5.01 | 4.74 | 5.59 | 6.04
298.15 K | 0.323 | 3.31 | 7.85 | 7.49 | 6.85 | 6.32 | 5.77 | 6.8 | 7.23
303.15 K | 0.412 | 4.04 | 9.35 | 8.95 | 8.16 | 7.51 | 6.86 | 8.1 | 8.7
308.15 K | 0.544 | 5.06 | 11.4 | 10.8 | 9.87 | 8.98 | 8.2 | 9.64 | 10.2
313.15 K | 0.69 | 6.11 | 13.3 | 12.7 | 11.6 | 10.5 | 9.62 | 11.2 | 11.7
318.15 K | 0.878 | 7.39 | 15.7 | 14.9 | 13.7 | 12.4 | 11.2 | 12.8 | 13.4
323.15 K | 1.11 | 8.88 | 18.2 | 17.2 | 15.8 | 14.3 | 13 | 14.6 | 15.1
328.15 K | 1.39 | 10.5 | 21 | 19.9 | 18.1 | 16.5 | 14.9 | 16.5 | 17.1

NC(N)=C([N+](=O)[O-])[N+](=O)[O-] + CS(C)=O + O=C1CCCC1
solubility (g/100 g solution)
Details | 293.15 K | 298.15 K | 303.15 K | 308.15 K | 313.15 K | 318.15 K | 323.15 K | 328.15 K | 333.15 K
x2 = 0.1177 | 3.67 | 3.8 | 4.06 | 4.31 | 4.57 | 4.86 | 5.16 | 5.5 | 5.84
x2 = 0.2308 | 7.45 | 7.83 | 8.19 | 8.56 | 8.97 | 9.37 | 9.83 | 10.2 | 10.7
x2 = 0.3397 | 11.5 | 12.1 | 12.6 | 13 | 13.5 | 14 | 14.5 | 15 | 15.6
x2 = 0.4445 | 15.2 | 15.8 | 16.2 | 16.6 | 17.1 | 17.6 | 18.3 | 18.9 | 19.5
x2 = 0.5455 | 18.5 | 19.2 | 19.7 | 20.1 | 20.6 | 21.1 | 21.7 | 22.3 | 22.9
x2 = 0.6429 | 21.3 | 21.9 | 22.4 | 22.9 | 23.4 | 24 | 24.6 | 25.1 | 25.8
x2 = 0.7369 | 23.8 | 24.6 | 25 | 25.5 | 26.1 | 26.6 | 27.2 | 27.8 | 28.5
x2 = 0.8276 | 26 | 26.5 | 27 | 27.4 | 28.1 | 28.6 | 29.2 | 29.8 | 30.4
x2 = 0.9153 | 27.7 | 28.5 | 29 | 29.4 | 30 | 30.5 | 31.1 | 31.8 | 32.4

Nc1ncn(C2OC(CO)C(O)C2O)c(=O)n1 (stereo not given) + O + CC(C)O
solubility (g/100 g solution)
Details | 278.15 K | 283.15 K | 288.15 K | 293.15 K | 298.15 K | 303.15 K | 308.15 K | 313.15 K | 318.15 K
x2 = 0.4546 | 0.0657 | 0.0837 | 0.104 | 0.126 | 0.152 | 0.187 | 0.227 | 0.276 | 0.336
x2 = 0.6897 | 0.152 | 0.192 | 0.238 | 0.293 | 0.351 | 0.421 | 0.502 | 0.601 | 0.714
x2 = 0.8334 | 0.275 | 0.349 | 0.429 | 0.516 | 0.613 | 0.717 | 0.851 | 0.997 | 1.17
x2 = 0.9303 | 0.455 | 0.57 | 0.693 | 0.836 | 0.979 | 1.14 | 1.31 | 1.52 | 1.75
